Experiments:
[1] = cited from earlier work
[2] = system: allergic asthma; details: Cox et al; cited from earlier work
[3] = system: passive cutaneous anaphylaxis; assay: duration of action in the passive cutaneous anaphylaxis test of the rats, interval between oral administration and antigen varied; assay type: in vivo, rat (SLC Wister); details: 30 mg/kg
Description: To SLC Wister rats were administered intracutaneously egg white albumin recrystallized 5 times and Bodetallapertussis Vaccine, and serum was collected after 13 days from the rats. […] The serum was diluted 128 times and it was then administered intracutaneously to the back of the rats. After 48 hours, the compounds of the present invention in the quantities shown in Table 1 which had been suspended in 1% tragacanth solution were administered orally to the rats. A physiological salt solution in which egg white albumin and a dye (Evans' blue) were dissolved was administered intravenously, 30 minutes after the oral administration, to the rats; and 30 minutes thereafter the back skins of the rats were peeled off. The dye that transuded from the peeled skin was extracted with Na2 SO4 and acetone, and the quantities of the dye were measured by colorimetry at 620 m μ.
In the above-described passive cutaneous anaphylaxis test of the rats, the intervals between the oral administration of the present compounds and the administration of egg white albumin and the dye were variously changed to observe the changes in the effect of the compounds depending upon the intervals.
As a representative compound of the present invention, 2-methyl-1-pentyl ester of 7,8-dimethyl-5-hydroxy-quinolo[4,3-b]pyran-4-one-2-carboxylic acid was used. The percent inhibition is shown in Table 2 when the compound was orally administered in a ratio of 30 mg/kg.

[4] = system: passive cutaneous anaphylaxis; assay: passive cutaneous anaphylaxis test (P.C.A.) on rats, oral administration; assay type: in vivo, rat (SLC Wister); details: 0.5 h, rat, antigen 30 minutes after administration, read-out: Percent inhibition (%)
Description: Various 5-hydroxy-quinolopyran-4-one-2-carboxylic acid esters in terms of the R group represented by the general formula [I] were prepared. […] In order to estimate the efficacy of each compound as an anti-allergic antasthmatic, the efficacy was evaluated according to a passive cutaneous anaphylaxis test (P.C.A.) on rats.
To SLC Wister rats were administered intracutaneously egg white albumin recrystallized 5 times and Bodetallapertussis Vaccine, and serum was collected after 13 days from the rats. […] A physiological salt solution in which egg white albumin and a dye (Evans' blue) were dissolved was administered intravenously, 30 minutes after the oral administration, to the rats; and 30 minutes thereafter the back skins of the rats were peeled off. The dye that transuded from the peeled skin was extracted with Na2 SO4 and acetone, and the quantities of the dye were measured by colorimetry at 620 m μ.

O=C(O)c1cc(=O)c2c(OCC(O)COc3cccc4oc(C(=O)O)cc(=O)c34)cccc2o1 [disodium cromoglycate]
absorption via oral administration [1]: cannot be absorbed via oral administration
effectiveness for allergic asthma [2]: effective for allergic asthma

CCCC(C)COC(=O)c1cc(=O)c2c(O)nc3c(C)c(C)ccc3c2o1 (centres unmarked) [2-methyl-1-pentyl ester of 7,8-dimethyl-5-hydroxy-quinolo[4,3-b]pyran-4-one-2-carboxylic acid]
Percent inhibition (%) ([3]; period of time 10 min.): 96.5%
Percent inhibition (%) ([3]; period of time 20 min.): 98.5%
Percent inhibition (%) ([3]; period of time 30 min.): 95.0%
Percent inhibition (%) ([3]; period of time 40 min.): 93.0%
Percent inhibition (%) ([3]; period of time 1 hr.): 92.5%
Percent inhibition (%) ([3]; period of time 2 hrs.): 72.5%
Percent inhibition (%) ([3]; period of time 3 hrs.): 61.5%
Percent inhibition (%) ([3]; period of time 4 hrs.): 53.0%
inhibition in vivo at 30 mg/kg [4]: 97.9%

Cc1ccc2c(nc(O)c3c(=O)cc(C(=O)OCCO)oc32)c1C [2-hydroxy-ethyl ester of 7,8-dimethyl-5-hydroxy-quinolo[4,3-b]pyran-4-one-2-carboxylic acid, reference compound]
inhibition in vivo at 100 mg/kg ([4]; 100 mg/kg): 21.4%

COc1cc2nc(O)c3c(=O)cc(C(=O)OCCC(C)C)oc3c2cc1OC [3-methyl-1-butyl ester of 8,9-dimethoxy-5-hydroxy-quinolo[4,3-b]pyran-4-one-2-carboxylic acid]
inhibition in vivo at 30 mg/kg [4]: 67.3%

CCCCOC(=O)c1cc(=O)c2c(O)nc3c(C)c(C)ccc3c2o1 [n-butyl ester of 7,8-dimethyl-5-hydroxy-quinolo[4,3-b]pyran-4-one-2-carboxylic acid, reference compound]
inhibition in vivo at 30 mg/kg [4]: 48.8%

CCCCCCCCOC(=O)c1cc(=O)c2c(O)nc3c(C)c(C)ccc3c2o1 [n-octyl ester of 7,8-dimethyl-5-hydroxy-quinolo[4,3-b]pyran-4-one-2-carboxylic acid, reference compound]
inhibition in vivo at 30 mg/kg [4]: 39.3%

Cc1ccc2c(nc(O)c3c(=O)cc(C(=O)OCC(C)C)oc32)c1C [2-methyl-1-propyl ester of 7,8-dimethyl-5-hydroxy-quinolo[4,3-b]pyran-4-one-2-carboxylic acid, reference compound]
inhibition in vivo at 30 mg/kg [4]: 2.5%

CCC(C)CCOC(=O)c1cc(=O)c2c(O)nc3c(C)c(C)ccc3c2o1 (centres unmarked) [3-methyl-1-pentyl ester of 7,8-dimethyl-5-hydroxy-quinolo[4,3-b]pyran-4-one-2-carboxylic acid]
inhibition in vivo at 30 mg/kg [4]: 80.8%

Reference: US4298610A, “Ester derivatives of quinolopyran-4-one-2-carboxylic acids and antiallergic antasthmatics” (priority 1978, dated 1981)
